Like-named read-outs stand apart in the source and are kept apart here.
How the values were obtained:
Male Wistar rats [1] = assay: Intra testicular injection of acetic acid-induced characteristic pain or discomfort behavior; format: in vivo, rat
Description: (§1) Male Wistar rats aged 5 to 12 weeks (Charles River Japan) were used. Positions of the testes were confirmed by keeping the waist of each rat from the dorsal side, and a stimulative substance at a volume of 1 ml/kg was administered into the right and left testes using a syringe equipped with a 27 G needle.
When the intra-testicular administration is achieved, the testes are swelled and become hard in touch. The individuals whose testes were not swelled after the injection were judged as failure in the injection and excluded from further analysis. In addition, dye mixed stimulative substance was injected into the testes and the distribution of the dye within the testes was checked after completion of the experiments to verify whether a stimulative substance was successfully administered or not.
All data was presented as mean and standard error of the mean. The unpaired parametric t-test was used to compare the two group. The parametric Dunnett's multiple comparison test was performed to compare the three groups or more. P<0.05 was considered statistically significant.
(1) Dose-dependency of acetic acid: A rat was placed individually in a clear, round, plastic container (Natsume, Japan) for observation immediately after the intra testicular injection of 0.3, 1 and 3% acetic acid aqueous solutions or distilled water. […] Among these behaviors, the number of behaviors 1) to 3), frequently observed behavior, was counted from 5 to 20 minutes after the intra testicular injection of acetic acid.
(2) Effects of indomethacin: Indomethacin at 5 mg/3 mL/kg (Sigma-Aldrich Japan, Japan) or 0.1% Na2CO3 aqueous solution (vehicle solution) was orally administered 1 hour before the intra testicular injection of 1% acetic acid. Number of the characteristic pain or discomfort behavior was measured in the same manner as described in the above section.

Male Wistar rats [2] = assay: Intra testicular injection of NGF-induced pain or discomfort behavior; format: in vivo, rat; conditions: 10 to 30 minutes after injection, p<0.01
Description: as §1
When the intra-testicular administration is achieved, the testes are swelled and become hard in touch. The individuals whose testes were not swelled after the injection were judged as failure in the injection and excluded from further analysis. […]
(1) Dose dependency of NGF: Mouse NGF 2.5S (Alomone Labs, Ltd., Israel) at […] or saline (vehicle solution) was administered to both of the testes in rat. […] Thus, the total time the behavior of 1) was measured by a stopwatch from 10 to 30 minutes after the intra testicular injection.
(2) Effects of morphine: Morphine (Takeda Chemical Industry, Ltd., Japan) at 5 mg/kg or saline (vehicle solution) was subcutaneously administered 30 minutes before the intra testicular injection of 100 μg/kg NGF. Total time of the above mentioned characteristic pain or discomfort behavior was measured from 10 to 30 minutes after the intra testicular injection of NGF. […]

Male Wistar rats [3] = conditions: 1% acetic acid 1 ml/kg intra testicular; 30 to 60 min after injection; distilled water group 97±8%; p<0.05
Text: All data was presented as mean and standard error of the mean. The unpaired parametric t-test was used to compare the two group. P<0.05 was considered statistically significant.

Male Wistar rats [4] = assay: Effects of intra testicular injection of NGF on bladder capacity (conscious cystometry); format: in vivo, rat; conditions: 100 μg/kg NGF (1 ml/kg) intra testicular; 30 to 60 min after injection; saline group 104±14%; p<0.01
Description: P<0.05 was considered statistically significant.
After that, “pre bladder capacity” was recorded for 1 hr. […] Physiological saline (1 ml/kg) or 100 μg/kg NGF (1 ml/kg) were injected into the testes. […] The bladder capacity in the saline treated group was 104±14%, thus showing no significant change. […] This change was significant in comparison with that of physiological saline treated group (FIG. 6).

## COc1ccc2c(c1)c(CC(=O)O)c(C)n2C(=O)c1ccc(Cl)cc1 [indomethacin, Indomethacin]
Male Wistar rats [1]; 5 mg/3 mL/kg orally 1 hour before intra testicular 1% acetic acid, counted 5 to 20 minutes, vehicle group 19±6 times, p<0.01
  number of the characteristic pain or discomfort behaviors: 3±2 times

## CN1CC[C@]23c4c5ccc(O)c4O[C@H]2[C@@H](O)C=C[C@H]3[C@H]1C5 [morphine, Morphine]
Male Wistar rats [2]; 5 mg/kg subcutaneously 30 minutes before intra testicular 100 μg/kg NGF, vehicle group 167±31 seconds
  total time of the characteristic pain or discomfort behavior: 9 ± 4 s

## CC(=O)O [acetic acid]
Male Wistar rats [1]; 0.3% acetic acid aqueous solution, 1 ml/kg intra testicular, 5 to 20 minutes after injection, rat
  characteristic pain or discomfort behaviors: No characteristic pain or discomfort behaviors was observed
Male Wistar rats [1]; 1% acetic acid aqueous solution, 1 ml/kg intra testicular; behaviors 1) to 3) counted 5 to 20 minutes after injection, rat
  number of pain or discomfort behaviors: 16±2 times
Male Wistar rats [1]; 3% acetic acid aqueous solution, 1 ml/kg intra testicular; behaviors 1) to 3) counted 5 to 20 minutes after injection, rat
  number of pain or discomfort behaviors: 19±6 times
Male Wistar rats [3]
  bladder capacity, percent of the pre bladder capacity: 53±12%

B1: NGF: Mouse NGF 2.5S (Alomone Labs), nerve growth factor used as stimulative substance injected into the testes (protein, UniProt P01139 122-241, looked up)
Beta-nerve growth factor: SSTHPVFHMGEFSVCDSVSVWVGDKTTATDIKGKEVTVLAEVNINNSVFRQYFFETKCRASNPVESGCRGIDSKHWNSYCTTTHTFVKALTTDEKQAAWRFIRIDTACVCVLSRKATRRG
Male Wistar rats [4]
  bladder capacity, percent of the pre bladder capacity: 29±9%
Male Wistar rats [2]; 100 μg/ml/kg NGF intra testicular, vehicle group 1.0±0.4 second
  total time of the characteristic pain or discomfort behavior (scratching the body vigorously with hindlimbs): 155 ± 29 s
